# Laboratory results reported in US6011000A, “Compositions for the treatment of blood disorders” (priority 1995, dated 2000).
# Experiments:
# K562 = assay: Growth of human erythroid cell line K562; type: cell-based; conditions: for growth of K562: 0.5 mM, over 3 days
# Protocol: Such activities might limit their utility for treatment of anemias such as occur in thalassemia, but alternatively would be useful for anticancer effects. […]
# (§1) Cell viability analyses were performed using fluorescent staining to detect living cells. Cells were in log phase of growth in 6-well dishes when used in proliferation assays. For enumeration of living cells, wells were washed once with medium to remove nonadherent or dead cells. Remaining live cells were labeled with Calcein-AM for 20 minutes at 37° C. and washed once. Fluorescence intensity of adherent live cells was read on a CytoFluor 2300 Fluorescence Plate Scanner (Millipore; Bedford, Mass.) at excitation and emission wavelengths of 485 and 530 nm, respectively. The fluorescence intensity of a well was proportional to the number of living cells in the well. Background fluorescence was measured separately for each plate and subtracted from all readings. Each experiment was performed in triplicate or quadruplicate. The standard deviation (SD) of repetitive readings was less than 30% of the mean.
# At higher concentrations, still easily achievable in vivo, arginine butyrate (0.5 mM) and dihydrocinnamic acid (greater than 0.5 mM) inhibited growth of this tumor cell line by approximately 50%. Therefore, these compounds are also useful as anti-tumor agents.
# [1] = tested on: fetal globin mRNA (human erythroleukemia cells); assay: Fetal globin mRNA in erythroleukemia cells (primer extension); type: cell-based
# Protocol: Compounds were tested for increased expression of the human globin genes in human erythroid cells. In addition, as the cell line being tested is a tumor cell line, the assay determines if differentiation, a growth inhibitory effect on cancer cells, is induced by the compounds tested. Human erythroleukemia cells were cultured in RPMI media with 10% fetal calf serum alone or with treatment with various compounds for 4 days. Globin MRNA was quantitated by primer extension analysis. Fetal globin mRNA was compared to the amount of fetal globin mRNA produced in untreated cells during the same culture period. The quantitation was expressed as a percent of alpha globin MRNA which was constant. Results are expressed proportional to α-globin mRNA (Table 3).
# [2] = tested on: fetal globin (gamma globin); assay: Fetal globin expression in erythroid progenitor cells from cord blood; type: cell-based, human
# Protocol: Compositions were tested for activity in inducing fetal globin expression and protein production in erythroid progenitor cells cultured from human cord blood and analyzed as described by S. P. Perrine et al. (Blood 74: 454-60, 1989). Briefly, mononuclear cells were cultured in IMDM with 30% fetal calf serum and 2 units erythropoietin per ml to induce erythroid differentiation. Colonies were harvested on day 12-13, incubated with radio-labelled (^3 H) leucine, and further incubated in leucine-free media, still in the presence of compounds, overnight. Globin composition in the erythroid cells was analyzed by laser densitometry of electrophoretically separated globin chains stained with Coomassie blue, and by autoradiography. Treated cells were incubated for 12-13 days (Table 2, Experiments A and B) or overnight (Table 2, Experiment C) in the presence of the indicated compounds and compared to untreated control cells cultured from the same human subject.
# K562 cells = assay: Dose response of cell growth, trypan blue exclusion (FIG. 3); type: cell-based, human; conditions: up to 2.0 mM, day 4
# Protocol: FIG. 3 Cell viability as determined by the comparative numbers of total and viable K562 cells in the presence of increasing concentrations of (A) phenoxyacetic acid, (B) dihydrocinnamic acid, (C) butyric acid ethyl ester, (D) arginine butyrate, and (E) isobutyramide.
# Dose response curves at dosages of up to 2.0 mM were also determined for phenoxyacetic acid (PAA; FIG. 3A), dihydrocinnamic acid (DHC; FIG. 3B), butyric acid ethyl ester (BAEE; FIG. 3C), arginine butyrate (AB; FIG. 3D) and isobutyramide (IBT; FIG. 3E). Cells were counted on day 4 of treatment and viable cells identified by trypan blue exclusion.
# [3] = tested on: erythroid cells (peripheral blood); assay: Erythroid cell viability by fluorescent staining (Calcein-AM), FIG. 2; type: cell-based, human; conditions: 0.5 mM, vs untreated controls
# Protocol: FIG. 2 Peripheral blood cell viability after incubation with arginine butyrate, dihydrocinnamic acid, phenoxyacetic acid and butyric acid ethyl ester.
# as §1, with “Compositions were tested for the ability to directly stimulate erythroid cell growth. Cell growth stimulation is a useful property for an agent to be used to treat anemias and distinguishes such agents from the cytotoxic drugs currently being tested for treatment of hemoglobinopathies. Cell viability” for “Cell viability”, “labeled with 2 μM 2',7'-bis-(carboxyethyl)-5-(and 6)-carboxy-fluorescein acetoxy-methyl ester (Calcein-AM) (Molecular Probes; Eugene, Oreg.) for 20” for “labeled with Calcein-AM for 20”, “intensity of live cells” for “intensity of adherent live cells”, “the mean. Results are depicted in FIG. 2.” for “the mean.”
# human erythroid cells = assay: DNA fragmentation by flow cytometry (degradation of DNA); type: cell-based
# Protocol: Such activities might limit their utility for treatment of anemias such as occur in thalassemia, but alternatively would be useful for anticancer effects. To determine cell viability, human erythroid cells were cultured in the presence and absence of these compounds for 4 days and the amount of DNA fragmentation which occurred was measured.
# Flow cytometric determination of DNA profiles and DNA fragmentation were determined. Cytometric analysis was performed with a FACScan (Becton Dickenson Instruments; Columbia, Md.). The data analysis and display were performed using the Cell-Fit software program. Approximately 0.5×10^6 cells were washed twice with PBS and resuspended in 1 ml of 1% sodium citrate, 0.1% Triton X-100 and 50 μg of propidium iodide/ml. Resulting permeabilized cells were kept in the dark at 4° C. overnight before DNA profile or DNA fragmentation analysis (Table 4).
# anemic baboon = assay: In vivo reticulocyte proliferation, globin expression and blood counts in anemic (phlebotomized) baboons; conditions: 4 days
# Protocol: Experiments were performed to determine if administration of the chemical compositions could induce fetal globin gene expression in an in vivo model similar to humans (S. P. Perrine et al., Brit. J. Haematol. 88:555-61, 1994). Briefly, chemicals were prepared as sterile pharmaceutical solutions in pH adjusted sterile water. A variety of chemical compositions were administered sequentially to some baboons. After administration of one compound, a wash-out period with no compound administration was maintained until reticulocytes returned to base line prior to administration of the next compound. This was done, at least partly, to compare the magnitude of response which occurred within the same individual animal to different compounds.
# Briefly, juvenile female baboons (2 years old) were catheterized with arterial and venous catheters and phlebotomized gradually every day to maintain a moderate anemia of 7.0 to 7.5 grams hemoglobin/dl. Fetal reticulocytes, the newly produced red blood cells containing fetal globin, were assayed using a monoclonal antibody against fetal globin (HbF) as described by G. Dover et al. (Blood 67:735-38, 1986). Briefly, blood was stained with two antibodies, one specific for reticulocytes and another against fetal globin protein. The amount of antibody bound cells was determined by FACS analysis. Globin chain synthesis was assayed as described by J. B. Clegg et al. (J. Mol. Biol. 19:91-108, 1966). Briefly, reticulocytes were radio-labeled with ^3 H-leucine which was incorporated in equal proportions into actively synthesized globin chains. After incubation in leucine-free media, cells were washed, and globin proteins were separated and purified by column chromatography. Radioactivity incorporated into each peak is compared and the ratios of gamma to gamma plus beta globin calculated. Each animal served as its own control with baseline monitoring assays performed for 4-6 weeks before any drug was administered. Phlebotomy was continued daily, so that peripheral HbF levels in the animals were not considered to be accurate over the short treatment time-frames and were not monitored. Safety monitoring was performed by frequent physical examinations, quantitation of food eaten, activity and frequent chemistry and hematology monitoring. Complete blood counts were assayed before, during and after treatment. Results presented were not adjusted to account for the daily phlebotomy.
# [4] = tested on: BFU-e (burst forming unit-erythroid); assay: BFU-e stimulation (colony growth) in cultured peripheral blood mononuclear cells; type: cell-based; conditions: Homo sapiens, PBMC; 0.1 mM; read-out: more BFU-e colonies from the same number of mononuclear cells than control cultures
# Protocol: Peripheral blood was collected from normal volunteers and patients with anemia due to sickle cell disease or thalassemia Mononuclear cells were isolated by Ficoll-Hypaque (Pharmacia Biotech; Piscataway, N.J.) centrifugation and cultured in Iscove's Modified Dulbecco's Media (IMDM; GIBCO/BRL; Grand Island, N.Y.) supplemented with 10% fetal calf serum, 300 μg/ml glutamine, 3 units/ml IL 3 (Amgen; Thousand Oaks, Calif.), and 2 units/ml erythropoietin (Terry Fox Labs; Vancouver, B.C.). Chemical compounds were obtained from Sigma Chemical (St. Louis, Mo.) or Aldrich Chemical (Milwaukee, Wis.), unless otherwise indicated, and formulated into pharmaceutical compositions by dissolving in aqueous solutions of media or sterile water pH adjusted to about 7.4. Solutions were sterilized by passage at least once through 0.22 micron Nalgene filters and added to cell cultures at final concentrations that are pharmaceutically achievable in vivo (typically between about 0.1 mM to 2.0 MM). Cells were incubated with compounds for between 13-14 days at 37° C. in humidified 5% CO2, and fed and passed, as necessary. Colony growth, proportion of fetal globin-expressing cells and amounts of fetal globin production were assayed. Results are presented in Table 1 as BFU-e stimulation (colony growth). […]
# [5] = tested on: hemoglobin polymerization; conditions: artificially deoxygenated blood; cited from earlier work
# [6] = Exp. A, 0.1 mM, 12-13 days, untreated 76.0%
# [7] = Exp. C, 0.1 mM, overnight, untreated 52.0%
structure (smiles),measurement,setting,value
"CCCC(=O)OCC [BAEE, butyric acid ethyl ester]",growth of K562,K562,"either did not inhibit, or slightly enhanced growth"
same,induction of fetal globin mRNA,[1],significantly increased the induction of fetal globin MRNA
same,stimulation of fetal globin expression relative to AB,[1]; 1.0 mM,over two times greater than even AB alone
same,Gamma/Alpha,"[1]; 1.0 mM, 4 days, untreated 0.46",0.90
same,activation at 1000 µM,"[1]; Homo sapiens, 96 h, 1.0 mM, 4 days, read-out: Gamma Globin mRNA (increase)",44%
same,Gamma/(Gamma + Beta),[2]; [6],89.5%
same,Gamma/(Gamma + Beta),"[2]; Exp. B, 0.2 mM, 12-13 days, untreated 25.4%, 27.5%",74.0%
same,Gamma/(Gamma + Beta),[2]; [7],64.6%
same,proliferation,K562 cells,did not significantly inhibit proliferation
same,erythroid cell growth and proliferation,[3],either had no effect or stimulated erythroid cell growth and proliferation
same,proportion of degraded DNA,"human erythroid cells; 1.0 mM to 2.0 mM, untreated 26%",13.8%
same,Degraded DNA,"human erythroid cells; 2.0 mM, 4 days, control 26%, 22%",13.8%
same,DNA fragmentation / cell viability / DNA integrity,human erythroid cells; DNA fragmentation assays,reduce DNA fragmentation
"O=C(O)CCc1ccccc1 [DHC, Dihydrocinnamic acid]",growth of K562,K562,"either did not inhibit, or slightly enhanced growth"
same,growth inhibition of K562,K562; greater than 0.5 mM,approximately 50%
same,Gamma/(Gamma + Beta),[2]; [6],88.0%
same,Gamma/(Gamma + Beta),[2]; [7],76.0%
same,Gamma/(Gamma + Beta),"[2]; Exp. C, 0.2 mM, overnight, untreated 52.0%",71.9%
same,Gamma/(Gamma + Beta),"[2]; Exp. C, 0.5 mM, overnight, untreated 52.0%",71.3%
same,red blood cell count,"anemic baboon; 1,000 mg/kg/day i.v., from 2.3",2.73 10^6 cells/μl
same,Total hemoglobin,"anemic baboon; 1,000 mg/kg/day i.v., from 6.6",7.3 grams/dl
same,packed red blood cell volume,"anemic baboon; 1,000 mg/kg/day i.v., from 20.9%",22.7 % of the blood
same,Fetal reticulocytes,"anemic baboon; 300 to 500 mg/kg per day infused, from 10%",17%
same,activation at 100 µM,[4],124%
same,erythroid cell growth and proliferation,[3],either had no effect or stimulated erythroid cell growth and proliferation
CC(C)(Oc1ccc(Cl)cc1)C(=O)O [clofibric acid],inhibition of polymerization,[5],inhibit polymerization
O=C(O)COc1ccc(Cl)cc1 [p-chloro phenoxy acetic acid],inhibition of polymerization,[5],inhibit polymerization
